{
  "source": "patent US20230364204A1",
  "about": "“Bioactive Peptides, Compositions, Production Process, and Use of Bioactive Peptides as Anti-Tumoral Agents” (priority 2022, published 2023)",
  "key": {"[1]": {"system": "MDAMB231 cells (triple negative)", "experiment": "MTT cell viability, tumor cells", "format": "cell-based", "procedure": "(§1) For the method of MTT, the cells were plated in 96-well sterile plates for cell culture with a cap at the density of 2 × 10^4 cells/well for treatments lasting 24 h and 1 × 10^4 cells/well for treatments lasting 48 h or more, completing the volume to 100 µL with culture medium. The plates were incubated for 8-16 h in an incubator at 37° C. and 5% CO2. The next day, the treatments were prepared in culture medium, applying 200 µL/well at the desired concentration, and the plates were placed in an incubator at 37° C. and 5% CO2for the duration of treatment. After the treatment period, 20 µL/well of a MTT solution was added in PBS (1×) at a concentration of 5 mg/mL, and the dye was incubated at 37° C. and 5% CO2 for 2.5 h. After incubation with MTT, Formazan salts were solubilized with the addition of 200 µL of dimethylsulfoxide solution (DMSO): isopropanol (3:1) and agitated for at least 15 minutes at room temperature. After complete dissolution of the salts, the absorbance was read in a spectrophotometer at 570 nm with endpoint protocol.\n(§2) The calculation of cell viability was performed using the formula: […]\n(§3) O.D.: optical density captured by spectrophotometer\n(§4) NOTE: The Basal O.D. is the one found in the blank wells.\nIn order to determine the efficacy (comparison of doses and times for the MDAMB231 cell line) and safety (comparison between the effects on MDAMB231 and HDFa cells) of the peptide SEQ ID 1 - MFYPDSRCRGPSET (C-terminal region of Crotoxin B), named 3-NAntC, the Analysis of Variance (ANOVA) with Bonferroni post-hoc test was applied to the significance of 5% in GraphPad Prism software version 6.0."}, "[2]": {"system": "MDA-MB-231 cells implanted in zebrafish larvae", "experiment": "Zebrafish xenograft model of MDAMB231 (primary tumor and metastasis)", "format": "in vivo", "settings": "72 h, 3-NantC co-implanted at 75, 100 or 125 mg/mL, Doxorubicin 2.5 µg/mL in embryo water", "procedure": "Transgenic Tg(fli1:EGFP)y1 zebrafish embryos were raised at 28° C. for 48 hours in E3 embryo medium 0.2 mM 1-Phenyl-2-Thiourea aka PTU. […] MDA-MB-231 cells were labeled with Dil red fluorescent dye. Approximately 700 Dil Labeled cancer cells were subcutaneously co-implanted into the perivitelline space of 2 days old larvae ± 3-NantC peptide at […]. Larvae in which tumor cells had been inadvertently injected into circulation or larvae with erroneous implantation of the tumor in the yolk rather than the perivitelline space were excluded from the study. Selected tumor bearing embryos were sorted into experimental groups (20 embryos/group), and pictures of primary tumors were taken right after injection. Doxorubicin treatment was added to embryo water at 2.5 µg/mL according to the study plan. Tumor-bearing embryos were incubated in E3/PTU medium for 72 h at 36° C. After incubation, pictures of the primary tumors and the CVP were taken using a red fluorescent filter. Larvae that died or were lost by other means during the study were excluded from the final analysis.\nImages obtained right after implantation (day 0) and after 72 h incubation (day 3) were analyzed by using in-house developed software. Tumor growth regression was calculated and normalized to the negative control group. The number of metastasized cells was counted manually. One-way ANOVA was performed followed by two-tailed Student’s t-test. Definitive outliers were detected using the ROUT method with a Q=1%. Graphs and example images, and experimental data were obtained/analyzed by using GraphPad Prism v9.0.2."}, "[3]": {"experiment": "MTT cell viability, mammary benign cells", "format": "cell-based", "settings": "human, MCF10A cells (mammary benign cells), read-out: viable cells (MTT)", "procedure": "as §1, §2, §3, §4"}},
  "data": [
    {"molecule": "[H]-HLLQ FNKMIKFETRKNAIPF-[OH] (N-terminal HLLQ) [Peptide A, peptide derived from the N-terminal region of Crotoxin B, reference compound]", "values": [
      {"measurement": "effect on viability of the tumor cells (MTT), in words", "setting": "[1]; MDAMB231", "result": "did not decrease the viability"}
    ]},
    {"molecule": "MFYPDSRSRGPSET [SEQ ID 10, 3-NAntC monomer]", "values": [
      {"measurement": "compared efficacy in decreasing MDAMB231 cells' viability (MTT, FIG. 13/14)", "setting": "[1]; MDAMB231, SEQ IDs 2-10 compared to SEQ ID 1", "result": "interesting antitumor effect"}
    ]},
    {"molecule": "COc1cccc2c1C(=O)c1c(O)c3c(c(O)c1C2=O)C[C@@](O)(C(=O)CO)C[C@@H]3O[C@H]1C[C@H](N)[C@H](O)[C@H](C)O1", "note": "[Doxorubicin, reference compound]", "values": [
      {"measurement": "decrease of tumor cells (primary tumor)", "setting": "[2]", "result": "about 35%"}
    ]},
    {"molecule": "H-AIPFYAFY-OH [Peptide B, [H)-AIPFYAFY-(OH]]", "values": [
      {"measurement": "viability at 48 h", "setting": "[3]", "result": "~85", "unit": "%"}
    ]}
  ]
}
